Experimental data as given in patent US7977360B2, “Benzo[d]isoxazol-3-yl-amine compounds and their use as vanilloid receptor ligands” (Gruenenthal GmbH, priority 2005, dated 2011).

Molecular target: T1, vanilloid receptor 1 (VR1/TRPV1 receptor) (Rattus norvegicus, UniProt O35433)
T1 construct: endogenous in cells; host or cells: primary cultured dorsal root ganglion cells from rats
Assay: Functional study on vanilloid receptor 1 (VR1/TRPV1), FLIPR Ca2+ inflow assay in rat dorsal root ganglia cells (method I)
Format: cell-based
Settings: compound 10 μM, rat DRG cells; for inhibition at 10 µM: then 100 nM capsaicin after 5 min, per method % inhibition vs maximum achievable inhibition with 10 μM capsaicin, read-out: rVR1 [10 μM] inhibition; for rVR1 [10 μM] stimulation: per method % activation in relation to the Ca2+ signal after 10 μM capsaicin
From the text: I. Functional Study on Vanilloid Receptor 1 (VR1/TRPV1 Receptor)
The agonistic or antagonistic effect of the substances to be studied on vanilloid receptor 1 (VR1/TRPV1) of the rat species can be determined with the following assay. According to this assay, the Ca^2+ inflow through the receptor canal is quantified with the help of a Ca^2+-sensitive dye (type Fluo-4, Molecular Probes Europe BV, Leiden Netherlands) in the Fluorescent Imaging Plate Reader (FLIPR, Molecular Devices, Sunnyvale, USA).
Complete medium: 50 mL HAMS F12 Nutrient Mixture (Gibco Invitrogen GmbH, Karlsruhe, Germany) with • 10% by vol. FCS (fetal calf serum, Gibco Invitrogen GmbH, Karlsruhe, Germany, heat-inactivated); • 2 mM L-glutamine (Sigma, Munich, Germany); • 1% by weight AA solution (antibiotic/antimycotic solution, PAA, Pasching, Austria) and 25 ng/ml medium NGF (2.5 S, Gibco Invitrogen GmbH, Karlsruhe, Germany)
Cell culture plate: Poly-D-Lysin-coated, 96 well black/clear plates (BD Biosciences, Heidelberg, Germany) are additionally coated with laminin (Gibco Invitrogen GmbH, Karlsruhe, Germany) by diluting laminin to a concentration of […] with PBS (Ca—Mg-free PBS, Gibco Invitrogen GmbH, Karlsruhe, Germany). Aliquots with a concentration of 100 μg/mL of laminin are removed and stored at −20° C. The aliquots are diluted with PBS in a ratio of 1:10 to 10 μg/mL of laminin and respectively 50 μL of the solution is pipetted into a recess of the cell culture plate. Die cell culture plates are incubated for at least two hours at 37° C., the remaining solutions is filtered off by suction and the recesses are each washed twice with PBS. The coated cell culture plates are stored with the remaining PBS and this is only removed directly before the addition of the cells.
The spinal column is removed from decapitated rats and this is placed directly in a cold HBSS buffer (Hank's buffered saline solution, Gibco Invitrogen GmbH, Karlsruhe, Germany), located in an ice bath, to which is added 1% by vol. (percent by volume) of an AA solution (antibiotic/antimycotic solution, PM, Pasching, Austria). The spinal column is divided longitudinally and removed from the vertebral canal together with fascia. The dorsal root ganglia (DRGs) are subsequently removed and in turn stored in cold HBSS buffer to which is added 1% by vol. of an AA solution. The DRGs which have been made completely free of blood residues and spinal nerves are transported in each case into 500 μL cold collagenase type 2 (PAA, Pasching, Austria) and incubated for 35 minutes at 37° C. […]
The DRGs are each multiply suspended, drawn by means of a syringe through cannulas no. […] The resultant pellet is respectively received in 250 μL complete medium and the cell number determined. […]

T1 sequence (O35433 whole entry): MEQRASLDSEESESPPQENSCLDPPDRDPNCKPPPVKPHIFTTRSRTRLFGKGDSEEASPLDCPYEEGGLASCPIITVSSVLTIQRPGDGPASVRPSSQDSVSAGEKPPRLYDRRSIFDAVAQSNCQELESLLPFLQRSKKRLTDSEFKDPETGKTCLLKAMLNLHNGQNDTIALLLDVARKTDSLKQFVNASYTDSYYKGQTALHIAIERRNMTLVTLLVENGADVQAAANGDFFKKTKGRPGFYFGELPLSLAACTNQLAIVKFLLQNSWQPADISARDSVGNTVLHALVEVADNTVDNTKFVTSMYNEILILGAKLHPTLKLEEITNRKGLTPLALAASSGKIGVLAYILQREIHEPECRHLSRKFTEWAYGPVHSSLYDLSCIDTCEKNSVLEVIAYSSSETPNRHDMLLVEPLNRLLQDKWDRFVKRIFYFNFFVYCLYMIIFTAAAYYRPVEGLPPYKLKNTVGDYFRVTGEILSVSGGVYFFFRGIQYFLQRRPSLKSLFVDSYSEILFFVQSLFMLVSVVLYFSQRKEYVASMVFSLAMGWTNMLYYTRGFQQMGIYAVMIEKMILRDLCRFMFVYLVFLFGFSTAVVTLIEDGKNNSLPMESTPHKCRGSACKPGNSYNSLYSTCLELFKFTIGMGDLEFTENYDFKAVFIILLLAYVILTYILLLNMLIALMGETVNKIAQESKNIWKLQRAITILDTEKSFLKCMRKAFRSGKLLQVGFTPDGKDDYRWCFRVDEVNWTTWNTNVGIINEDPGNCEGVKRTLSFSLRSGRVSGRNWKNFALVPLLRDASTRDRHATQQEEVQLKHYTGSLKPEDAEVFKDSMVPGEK

Row | SMILES | inhibition at 10 µM [%] | rVR1 [10 μM] stimulation [%]
1 | Cc1cccnc1-c1ccc2c(NCc3ccc(C(C)(C)C)cc3)noc2c1 [Compound 10, (4-tert-butyl-benzyl)-[6-(3-methyl-pyridine-2-yl)-benzo[d]isoxazol-3-yl]-amine] | 99 | 29
2 | CC(C)(C)c1ccc(CNc2noc3cc(-c4ccccn4)ccc23)cc1 [Compound 9, (4-tert-butyl-benzyl)-(6-pyridine-2-yl-benzo[d]isoxazol-3-yl)-amine] | 65 | 0
